Reference: US5880156A, “Substituted benzoylguanidines, process for their preparation, their use as a medicament or diagnostic and medicament containing them” (priority 1993, dated 1999)
Structures can show the parent of a compound that is named as a salt.

Experiments:
[1] = target: T1, Na^+ /H^+ exchanger from rabbit erythrocytes (Oryctolagus cuniculus, UniProt P23791); test: Inhibition of the Na^+ /H^+ exchanger from rabbit erythrocytes (Na^+ influx by flame photometry); type: cell-based, rabbit (White New Zealand); settings: pH 7.4, 37° C., cholesterol-fed rabbits
T1 construct: determine the Na^+ influx into the erythrocytes via Na^+ /H^+ exchange by flame photometry; endogenous in cells; host or cells: intact erythrocytes (whole blood samples) of cholesterol-fed White New Zealand rabbits
Protocol: White New Zealand rabbits (Ivanovas) received a standard diet containing 2% cholesterol for six weeks in order to activate Na^+ /H^+ exchange and thus to be able to determine the Na^+ influx into the erythrocytes via Na^+ /H^+ exchange by flame photometry. The blood was taken from the auricular arteries and rendered uncoagulable by means of 25 IU of potassium heparin. A part of each sample was used for the duplicate determination of the hematocrit by centrifugation. Aliquots of 100 μl in each case were used to measure the Na^+ starting content of the erythrocytes.
In order to determine the amiloride-sensitive sodium influx, 100 μl of each blood sample were incubated at pH 7.4 and 37° C. in 5 ml in each case of a hyperosmolar salt-sucrose medium (mmol/l: 140 NaCl, 3 KCl, 150 sucrose, 0.1 ouabain, 20 trishydroxymethylaminomethane). The erythrocytes were then washed three times with ice-cold MgCl2 --ouabain solution (mmol/l: […] MgCl2, 0.1 ouabain) and hemolyzed in 2.0 ml of distilled water. The intracellular sodium content was determined by flame photometry.
The net Na^+ influx was calculated from the difference between sodium starting values and the sodium content of the erythrocytes after incubation. The amilorideinhibitable sodium influx ensued from the difference in the sodium content of the erythrocytes after incubation with and without amiloride 3×10^-4 mol/l. The sodium influx was also determined in this manner in the case of the compounds according to the invention.

cardiac arrhythmias = settings: in vivo; cited from earlier work

T1 sequence (P23791 whole entry): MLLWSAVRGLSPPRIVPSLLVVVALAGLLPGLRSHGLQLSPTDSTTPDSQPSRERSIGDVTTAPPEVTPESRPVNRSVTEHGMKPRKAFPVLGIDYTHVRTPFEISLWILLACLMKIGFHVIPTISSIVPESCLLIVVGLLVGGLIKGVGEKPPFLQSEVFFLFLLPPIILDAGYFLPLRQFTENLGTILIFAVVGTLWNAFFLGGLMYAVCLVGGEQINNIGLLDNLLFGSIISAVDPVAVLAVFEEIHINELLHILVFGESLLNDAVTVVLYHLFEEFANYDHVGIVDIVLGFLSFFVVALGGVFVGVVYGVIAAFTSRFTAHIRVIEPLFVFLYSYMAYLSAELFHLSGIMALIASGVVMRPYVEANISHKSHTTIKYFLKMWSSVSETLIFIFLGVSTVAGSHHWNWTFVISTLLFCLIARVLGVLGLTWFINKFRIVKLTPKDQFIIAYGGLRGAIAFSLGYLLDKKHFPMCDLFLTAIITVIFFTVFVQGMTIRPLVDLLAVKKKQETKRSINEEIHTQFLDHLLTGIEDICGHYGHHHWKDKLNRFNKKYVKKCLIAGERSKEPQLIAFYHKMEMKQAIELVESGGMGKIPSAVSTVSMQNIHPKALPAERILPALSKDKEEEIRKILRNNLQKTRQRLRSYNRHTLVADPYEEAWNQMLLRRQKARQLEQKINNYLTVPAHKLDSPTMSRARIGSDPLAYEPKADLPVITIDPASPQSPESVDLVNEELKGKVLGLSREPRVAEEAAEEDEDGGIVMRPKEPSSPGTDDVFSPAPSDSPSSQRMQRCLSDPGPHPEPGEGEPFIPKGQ

## CC(O)c1ccc(Oc2ccc(C(=O)N=C(N)N)cc2S(C)(=O)=O)cc1 (racemic) [Example 2, hydrochloride]
[1]
  IC50: 400 nM

## CC(=O)c1ccc(Oc2ccc(C(=O)N=C(N)N)cc2S(C)(=O)=O)cc1 [Example 1, 4-(4-Acetylphenoxy)-3-methylsulfonylbenzoylguanidine]
[1]
  IC50: 400 nM

## C[C@@H](O)[C@H](O)c1ccc(Oc2ccc(C(=O)N=C(N)N)cc2S(C)(=O)=O)cc1 [Example 3, 4-[4-(1(R),2(R) -Dihydroxyprop-1-yl)phenoxy]-3-methylsulfonylbenzoylguanidine]
[1]
  IC50: 300 to 500 nM

## C[C@H](O)[C@@H](O)c1ccc(Oc2ccc(C(=O)N=C(N)N)cc2S(C)(=O)=O)cc1 [Example 4, 4-[4-(1(S),2(S)-Dihydroxyprop-1-yl)phenoxy]-3-methylsulfonylbenzoylguanidin]
[1]
  IC50: 100 to 500 nM

## N=C(N)NC(=O)c1nc(Cl)c(N)nc1N [amiloride, Amiloride]
Cardiac arrhythmias
  side effects accompanying antiarrhythmic effect: hypotensive and saluretic action
